# Records with an inconclusive call do not appear. The source made the active and inactive calls. No rule for the calls is given here.
# Test system: S. typhimurium/E. coli reverse mutation, colony counts
# Assay: Bacterial reverse mutation test (aka Ames test) summary data
# Summary of the method: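 Revertant colony counts on plates, compared with untreated controls, after about two days of growth. Exposure with or without liver S9 (rat/hamster/mouse), dose range per strain, 20-min 37° C preincubation or direct plate incorporation. Strains: his⁻ Salmonella, trp⁻ E. coli WP2 uvrA pKM101.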
row,SMILES,outcome
1,CN1C[C@H](C(=O)N[C@]2(C)O[C@@]3(O)[C@@H]4CCCN4C(=O)[C@H](Cc4ccccc4)N3C2=O)C=C2c3cccc4[nH]cc(c34)C[C@H]21,inactive; negative
2,C=C(C#N)C(=O)OC,active; positive
3,O=P(OC(CCl)CCl)(OC(CCl)CCl)OC(CCl)CCl,active; positive
4,C=CCNC(=S)NCC=C,inactive; negative
5,CCCCOCCOCCSC#N,inactive; negative
6,CCC(C)(C)OC,inactive; negative
7,c1ccoc1,active; weakly positive
8,O=C(O)CN(CCN(CC(=O)O)CC(=O)O)CC(=O)O,inactive; negative
9,Nc1c(Oc2ccccc2)cc(O)c2c1C(=O)c1ccccc1C2=O,active; positive
10,Nc1ccc(S(=O)(=O)Nc2ccccn2)cc1,inactive; negative
11,Nc1nc2ccccc2[nH]1,inactive; negative
12,c1ccc(O[Si](Oc2ccccc2)(Oc2ccccc2)Oc2ccccc2)cc1,inactive; negative
13,CC(C)(C)OC=O,inactive; negative
14,Cc1cc(C)c(N=Nc2c(O)c(S(=O)(=O)O)cc3cc(S(=O)(=O)O)ccc23)cc1C,inactive; negative
15,Cc1cc(C)nc(NS(=O)(=O)c2ccc(N)cc2)n1,inactive; negative
16,CN1CCC[C@H]1c1cccnc1,inactive; negative
17,Clc1ccc(C(Cl)(Cl)Cl)c(Cl)c1,active; positive
18,CCCCc1ccc(N=Cc2ccc(OC)cc2)cc1,active; positive
19,COc1c(C(C)(C)C)cc([N+](=O)[O-])c(C)c1[N+](=O)[O-],inactive; negative
20,CCC[CH2][Sn]([Cl])([Cl])[Cl],inactive; negative
21,COC(=O)Nc1cccc(OC(=O)Nc2cccc(C)c2)c1,active; positive
22,CNC[C@H](O)c1ccc(O)c(O)c1,active; weakly positive
23,CCCCCCCCCCCOC(=O)c1ccccc1C(=O)OCCCCCCCCCCC,inactive; negative

row,SMILES,outcome
1,CCCCC(CC)COP(OCC(CC)CCCC)OCC(CC)CCCC (stereo not drawn),inactive; negative
2,CC(=O)Nc1cccc(O)c1,inactive; negative
3,CCOc1ccc2nc(N)sc2c1,active; positive
4,CCN(CC)C(=S)S,inactive; negative
5,O=Cc1ccccc1Cl,inactive; negative
6,C=CBr,active; positive
7,CC(CCl)OP(=O)(OC(C)CCl)OC(C)CCl (stereo not drawn),inactive; negative
8,Cc1ccc(N)cc1N,active; positive
9,Cc1cc([N+](=O)[O-])ccc1N,active; positive
10,C=C(C)C1CC=C(C)C(OC(C)=O)C1 (stereo not drawn),inactive; negative
11,O=C(O)c1cc(Cl)ccc1Cl,inactive; negative
12,CCc1ccccc1O,inactive; negative
13,CC(=O)OCC(COC(C)=O)OC(C)=O,inactive; negative
14,O=C1C2(Cl)C3(Cl)C4(Cl)C(Cl)(Cl)C5(Cl)C3(Cl)C1(Cl)C5(Cl)C24Cl (stereo not drawn),inactive; negative
15,Fc1ccccc1,active; positive
16,C=C(C)C(=O)NCCCN(C)C,inactive; negative
17,O=C1Nc2ccc(S(=O)(=O)O)cc2C1=O,active; positive
18,O=C(O)COc1ccc(Cl)cc1Cl,inactive; negative
19,CCCCCc1cc(O)cc(O)c1,inactive; negative
20,CCN1CCOCC1,active; weakly positive
21,CC(CCC(=O)O)(c1ccc(O)cc1)c1ccc(O)cc1,inactive; negative
22,C=CCOC(=O)CCCCCCCC,inactive; negative
23,O=C1CCCCCN1,inactive; negative

row,SMILES,outcome
1,CC1=CC(C)(C)Nc2ccccc21,inactive; negative
2,Nc1ccc2c(c1)C(=O)c1ccccc1C2=O,active; positive
3,CC(=O)Nc1ccccc1C,active; positive
4,Cc1ccccc1N=Nc1c(O)ccc2ccccc12,active; positive
5,CCCCCCCC/C=C\CCCCCCCC(=O)OC,inactive; negative
6,N#CCCCl,active; positive
7,ClC(Cl)Cl,inactive; negative
8,O=S(=O)(O)C(F)(F)C(F)(F)C(F)(F)C(F)(F)C(F)(F)C(F)(F)C(F)(F)C(F)(F)F,inactive; negative
9,CCCC[n+]1ccccc1,inactive; negative
10,CCCCC(CC)COC(=O)c1ccccc1C(=O)O (stereo not drawn),inactive; negative
11,O=S1OCC2C(CO1)C1(Cl)C(Cl)=C(Cl)C2(Cl)C1(Cl)Cl (stereo not drawn),inactive; negative
12,COc1cc(-c2ccc(N=Nc3cc(S(=O)(=O)O)c4ccccc4c3O)c(OC)c2)ccc1N=Nc1cc(S(=O)(=O)O)c2ccccc2c1O,inactive; negative
13,C=COC(C)=O,inactive; negative
14,c1ccc2cc3c(cc2c1)-c1cccc2cccc-3c12,active; positive
15,CN(C)c1ccc2nc3ccc(=[N+](C)C)cc-3sc2c1,active; positive
16,NCCCCCCCCCCC(=O)O,inactive; negative
17,OCCCCl,active; positive
18,Cc1ccc2nc(-c3ccc(N)cc3)sc2c1,active; positive
19,CCC(C)(C)c1ccc(O)cc1,inactive; negative
20,COc1cc(-c2ccc(N)c(OC)c2)ccc1N,active; positive
21,Nc1cc(Cl)ccc1Cl,inactive; negative
22,O=CNc1nc(-c2ccc([N+](=O)[O-])o2)cs1,active; positive
23,Nc1cccc2c(=O)[nH][nH]c(=O)c12,inactive; negative

row,SMILES,outcome
1,CN(C)c1ccc(N)cc1,active; positive
2,O=C1C=C(O)c2ccccc2C1=O,active; positive
3,c1ccc2c(c1)ccc1ccccc12,active; weakly positive
4,O=C(O)CO,inactive; negative
5,CC(C)Cc1nccs1,active; positive
6,CCOc1ccc(NC(N)=O)cc1,inactive; negative
7,C=CCBr,active; positive
8,O=C(O)c1ccccc1,inactive; negative
9,Cn1cnc([N+](=O)[O-])c1Sc1ncnc2nc[nH]c12,active; positive
10,Cc1cccc(C(=O)O)c1[N+](=O)[O-],active; positive
11,C[n+]1cccc(C(=O)[O-])c1,inactive; negative
12,CCCCCCCCCC(=O)O,inactive; negative
13,ClC1=C(Cl)[C@]2(Cl)[C@H]3[C@H]([C@@H]4C=C[C@H]3C4)[C@@]1(Cl)C2(Cl)Cl,inactive; negative
14,CC(=O)OO,inactive; negative
15,CC(O)CCl (stereo not drawn),active; positive
16,CC(=O)CC(=O)Nc1ccccc1,inactive; negative
17,CC(N)C(=O)O (stereo not drawn),inactive; negative
18,Oc1c(Cl)cccc1Cl,inactive; negative
19,c1ccncc1,inactive; negative
20,CCOC=O,inactive; negative
21,C=C(C)C(=O)OC(C)C,inactive; negative
22,CC1=CC[C@H]2C(C)=CC[C@@H](C(C)C)[C@@H]2C1,inactive; negative
23,C=CCNC(N)=O,active; positive

row,SMILES,outcome
1,Cc1cn([C@H]2C=C[C@@H](CO)O2)c(=O)[nH]c1=O,active; weakly positive
2,Cc1cccnc1,inactive; negative
3,Nc1ccc(S(=O)(=O)Nc2nccs2)cc1,inactive; negative
4,CC(=O)OC/C=C(\C)CCC=C(C)C,inactive; negative
5,NCCNCCN,inactive; negative
6,Nc1cccc(S(=O)(=O)O)c1,inactive; negative
7,COc1cc2c(cc1OC)[C@@]13CCN4CC5=CCO[C@H]6CC(=O)N2[C@H]1[C@H]6[C@H]5C[C@H]43,inactive; negative
8,OC[C@H]1O[C@@H](Oc2ccc(O)cc2)[C@H](O)[C@@H](O)[C@@H]1O,inactive; negative
9,Nc1ccc(N)c2ccccc12,active; positive
10,CCC=C1OC(=O)c2ccccc21,active; positive
11,O=C1CCCCC1,inactive; negative
12,CCNC(=S)NCC,inactive; negative
13,Clc1cccc(C(Cl)(Cl)Cl)n1,active; positive
14,CC(=O)Nc1ccccc1,inactive; negative
15,CC(CCl)OC(C)CCl (stereo not drawn),active; positive
16,O=NN1CCOCC1,active; positive
17,CC(C=O)=Cc1ccccc1,inactive; negative
18,CC(C)COC(=O)COc1cc(Cl)c(Cl)cc1Cl,inactive; negative
19,N#CC(Cl)Cl,active; positive
20,C=CCN=C=S,active; weakly positive
21,NCC(=O)O,inactive; negative
22,CC12CCC(C1)C(C)(C)C2=O (stereo not drawn),inactive; negative
23,COc1ccc(N)c(C)c1,active; positive

row,SMILES,outcome
1,N#CCc1ccccc1[N+](=O)[O-],active; positive
2,CC(Cl)(Cl)[N+](=O)[O-],active; positive
3,Cc1ccccc1C(N)=O,inactive; negative
4,[Li+],inactive; negative
5,Nc1ccc([N+](=O)[O-])cc1N,active; positive
6,CCNC(=O)CC(C)=O,inactive; negative
7,C[N+](C)=c1ccc2nc3ccc(N)cc3sc-2c1,active; positive
8,C[N+](C)(C)Cc1ccccc1,inactive; negative
9,O=C1CSC(=S)N1,inactive; negative
10,c1ccc(C2CO2)cc1 (stereo not drawn),active; positive
11,Cc1c(Br)c(Br)c(Br)c(Br)c1Br,inactive; negative
12,O=C(O)CCCCC1CCSS1 (stereo not drawn),inactive; negative
13,CC(=O)OCc1ccco1,active; positive
14,Nc1ccc(Oc2ccc(N)cc2)cc1,active; positive
15,CCCCCCCC/C=C\CCCCCCCC(=O)O,inactive; negative
16,CCCCCCCC(=O)O,inactive; negative
17,CCCCCCCC(=O)Cl,active; positive
18,S=c1[nH]c2ccccc2[nH]1,inactive; negative

# From PubChem BioAssay AID2202554 (NIEHS Division of Translational Toxicology (DTT))
